Earlier results, collected in publication PMC9240354, “Pharmacokinetics, Pharmacodynamics and Antiviral Efficacy of the MEK Inhibitor Zapnometinib in Animal Models and in Humans” (Frontiers in Pharmacology, 2022).

How the values were obtained:
[1] = test system: MEK; set-up: method as in Yang et al., 2010; details: single application, LOX melanoma tumor xenograft model; ref Yang et al., 2010; cited from earlier work
[2] = test system: ERK phosphorylation; set-up: method as in Gilmartin et al., 2011; details: mouse tumor xenograft model; ref Gilmartin et al., 2011; cited from earlier work

| SMILES | MEK inhibition with decreasing plasma concentration [1] | inhibition of ERK phosphorylation in vivo [2] |
| --- | --- | --- |
| CCCS(=O)(=O)Nc1ccc(F)c(C(=O)c2c[nH]c3ncc(-c4ccc(Cl)cc4)cc23)c1F [RG7204] | remained at a relatively constant value up to 8 h post dose | – |
| CC(=O)Nc1cccc(-n2c(=O)n(C3CC3)c(=O)c3c(Nc4ccc(I)cc4F)n(C)c(=O)c(C)c32)c1 [trametinib] | – | sustained inhibition of ERK phosphorylation |
